We go through three compounds from patent US11904051B2, “Shear stress sensitive liposomes” (Universität Basel, priority 2018, dated 2024).

Several values for one entry are separate records, joined by “and”; a condition that tells them apart may be missing. Identical values can stand only once.

What all share (assay type): physicochemical
The nature of data set [1]: Release experiments with 5(6)-carboxyfluorescein-loaded large unilamellar vesicles (LUVET100), spontaneous and vortex-triggered. The conditions noted are these: for Release at RT after 60 s vortex / Release 37° C. after 60 s vortex: mechanically induced release, 60 s vortexing; for Release at RT after 60 s vortex / Release at RT after 7 days: 22° C. (RT); for Release at RT after 7 days: spontaneous release of 5(6)-carboxyfluorescein; for release at 37° C. without vortexing: without vortexing/shaking. From the text: FIG. 8 Release experiments using 5(6)-carboxyfluorescein-loaded large unilamellar vesicles comprising 1,3-diheptadecanamidopropan-2-yl (2-(trimethylammonio) ethyl) phosphate (4) obtained via extrusion through a 100 nm track-edged filter membrane (LUVET100). Triggered release was induced by shaking the samples for a specific amount of time on a vortex-shaker.
Previously the inventors reported the 5(6)-carboxyfluorescein release from vesicles containing 1,3-palmitoylamido-1,3-deoxy-sn-glycero-2-phosphatidylcholine (2) (Holme et al., Nat. Nanotechnol. 2012, 7, 536-543). […] Increasing the Tm promises improved release properties. […] This leads to a lower leakage of the vesicles at 22° C. (room temperature) as well as 37° C. (average human body temperature) (FIG. 8). A prolongation if the acyl chain to the artificial C18 phospholipid 1,3-stearoylamido-1,3-deoxy-sn-glycero-2-phosphatidylcholine leads to an increased Tm of 52° C., but this phospholipid forms almost no liposomes anymore.
Each sample was treated with Triton X-100 to induce a full release of 5(6)-carboxy fluorescein.
Large unilamellar vesicles with a diameter of 100 nm (LUVET100) of the 1,3-diheptadecanamidopropan-2-yl (2-(trimethylammonio) ethyl) phosphate (4) were prepared following the extrusion protocol: in a 25 ml round bottom flask, 10 mg of the lipid was dissolved in CH2Cl2. After evaporation of the organic solvent, the film was further dried under high vacuum (40 mbar) overnight. Then the film was hydrated with the internal buffer for 30 min (1 ml, 50 mM 5(6)-carboxyfluorescein, 10 mM HEPES buffer (AppliChem), 10 mM NaCl dissolved in pure water, pH 7.4). Now at least 5 freeze-thaw cycles (liquid N2 to 65° C.) were carried out before the suspension was extruded 11 times using a Mini Extruder (Avanti Polar Lipids, USA) using track-edged filters with a mesh size of 100 nm (Whatman, USA). The external buffer was then exchanged on a size exclusion column (1.5×20 cm Sephadex G-50 column) in external buffer (107 mM NaCl dissolved in ultrapure water, 10 mM HEPES, pH 7.4).

A short description of data set [2]: Differential scanning calorimetry, main phase transition of vesicle membranes. The conditions noted are these: for Tm: main phase transition temperature of liposome membrane. From the text:
Interdigitation of membrane leaflets also influences the membranes main-phase transition temperature. […] Also, the value for the bilayer main-phase transition temperature is 11.5 K higher than the calculated critical temperature from the monolayer experiments, where no interdigitation is possible.

Data set [3] in a line: Small-angle neutron scattering (SANS) of liposomes as a function of temperature. Details: key to Eccentricity: ε = c/R axis ratio; <1 oblate, 1 spherical, >1 prolate. The text has this: In order to determine the structural parameters, including the bilayer thickness of the selected liposomal formulations, a suitable model for data fitting has to be identified. […] The structure factor was fitted using the sticky hard sphere model (Baxter et al., The Journal of Chemical Physics 1968, 49 (6), 2770-2774; Mays, Langmuir 1989, 5, 422-428). In order to adjust the form factor to the overall shape of the liposomes, an ellipsoidal shell model with a homogeneous cross-section (Guinier, Annales de Physique, 1939; pp 161-237) was applied. The elliptical shell model is defined by three orthogonal axes with lengths a=R, b=R and c=εR, along with eccentricity ε>0, (ε<1: oblate, ε=1: spherical, ε>1: prolate). The model also accounts for variations in bilayer thickness and liposome size. As the scattering data of the Pad-PC-Pad liposomes at the temperature of 35° C. could not be approximated satisfactorily by means of the ellipsoidal shell, the inventors included disks with a homogeneous cross-section—an approach motivated by the cryo-TEM results. Together with the experimental data of the Pad-PC-Pad liposomes at three selected temperatures, the obtained fits are represented in FIG. 23.
The inventors recognised that the inhomogeneity of the liposomal formulations, except for Pad-PC-Pad, concerning the shape and size of the artificial lipids in this study only allows for the reasonable fitting of the q-range, which corresponds to bilayer thickness. For this purpose, the inventors applied an extended Guinier law (Hjelm et al., The Journal of Physical Chemistry B 2000, 104 (2), 197-211; Fratzl, Journal of Statistical Physics 1994, 77 (1-2), 125-143), which yields the thickness of the bilayer. To account for possible multi-lamellarity, the inventors included a para-crystalline stacking model (Schwartz et al., Biophysical journal 1975, 15 (12), 1201-1233; FruÈhwirth et al., Journal of Applied Crystallography 2004, 37 (5), 703-710) as a structure factor.
SANS measurements were performed at the SANS-I beamline at the Swiss Spallation Neutron Source SINQ facility (Paul Scherrer Institute, Villigen, Switzerland). The samples were loaded into 2 mm-path length, boron-free quartz glass cells and mounted in a temperature-controlled holder. This system allows for controlling the temperature of the specimen with an accuracy better than 1 K. The liposomal suspensions were measured between 22 and 42° C. in 3 to 4 K steps. Subsequently, the suspensions were cooled down to room temperature (22° C.) and measured again. Three detector distances, i.e. 1.6, 6.0 and 18.0 m, were used to collect data over the range of scattering vectors 0.01 nm^−1<q<10 nm^−1 at the neutron wavelengths (A) […]. Data were collected with a two-dimensional ^3He-detector with an array of 128×128 pixels and reduced to one-dimensional I(q) scattering curves, thus radially averaging the two-dimensional images. The data were corrected for transmission, background scattering and detector efficiency according to a standard procedure using the BerSANS software package (Keiderling, Applied Physics A 2002, 74 (1), s1455-s1457; Strunz et al., Journal of Applied Crystallography 2000, 33 (3 Part 1), 829-833).
The SANS data were analysed using SASfit software (Breßler et al., Journal of Applied Crystallography 2015, 48 (5), 1587-1598) and corresponding models. A Pad-PC-Pad sample was fitted over the entire measured q-range, whereas we restricted the fit for the other samples to the q-range, which corresponds to lipid bilayer thickness. For Pad-PC-Pad, the inventors used an ellipsoidal shell model with a homogeneous cross-section (Guinier, Annales de Physique, 1939; pp 161-237) and size distributions in terms of both thickness and radius. […]

The mark [4] stands for this setting: 22 ° C. (after cooling down to room temperature).
Where [5] appears, read: 35 ° C., contribution for disks accounted for.
Setting [6] is: LUVs, heating and cooling rates of 0.5° C./min.

Turning to `CCCCCCCCCCCCCCCC(=O)OC[C@H](COP(=O)([O-])OCC[N+](C)(C)C)OC(=O)CCCCCCCCCCCCCCC` [DPPC, 1,2-dipalmitoyl-sn-glycero-3-phosphocholine], the “Release at 37° C. after 2 h” value in data set [1] is given as 12.2%. In addition, the “Release at RT after 60 s vortex” value in data set [1] is reported as 1.1%. Further, in data set [1], the “Release 37° C. after 60 s vortex” value came out at 17.9%. Moreover, in data set [1], the “Release at RT after 7 days” value is 4.5%. In data set [2], the Tm worked out at 41 °C. For the same compound, the most probable bilayer thickness in data set [3] (22 ° C.) was determined as 4.59 nm; in data set [3] (setting [4]), 4.67 nm; in data set [3] (25 ° C.) it was 4.58 nm; in data set [3] (28 ° C.), 4.62 nm; in data set [3] (32 ° C.), 4.61 nm; in data set [3] (35 ° C.) it was 4.61 nm. Further, the most probable bilayer thickness in data set [3] (39 ° C.) and in data set [3] (42 ° C.) was 4.65 nm throughout.
Consider `CCCCCCCCCCCCCCCC(=O)NCC(CNC(=O)CCCCCCCCCCCCCCC)OP(=O)([O-])OCC[N+](C)(C)C` [Pad-PC-Pad, 1,3-palmitoylamido-1,3-deoxy-sn-glycero-2-phosphatidylcholine], for which, in data set [1], the “Release at 37° C. after 2 h” value is recorded as 100%. The “release at 37° C. without vortexing” value was 100% in data set [1] and “immediate full release” in data set [1] (listed as 1,3-palmitoylamido-1,3-deoxy-sn-glycero-2-phosphatidylcholine). In addition, in data set [1], the “Release at RT after 60 s vortex” value is on record as 43.4%. Also, the “Release 37° C. after 60 s vortex” value in data set [1] amounted to 100%. Besides, the “Release at RT after 7 days” value in data set [1] came out at 15.5%. Also, in data set [2], the Tm came to 37 °C. The Bilayer thickness in data set [3] (22 ° C.) worked out at 3.46 ± 1.07 nm; in data set [3] (setting [4]), 4.18 ± 0.70 nm; in data set [3] (25 ° C.), 3.38 ± 0.94 nm; in data set [3] (28 ° C.), 3.34 ± 0.91 nm; in data set [3] (32 ° C.), 3.37 ± 0.89 nm; in data set [3] (setting [5]) it was 3.42 ± 0.88 nm. Moreover, the Bilayer thickness in data set [3] (39 ° C.) is reported as 3.37 ± 0.76 nm; in data set [3] (42 ° C.) it was 3.57 ± 0.74 nm. Besides, the Eccentricity in data set [3] (22 ° C.) was 0.35; in data set [3] (setting [4]), 0.04; in data set [3] (25 ° C.), 0.35; in data set [3] (28 ° C.), 0.32; in data set [3] (32 ° C.), 0.31; in data set [3] (setting [5]), 0.88. Moreover, the Eccentricity in data set [3] (39 ° C.) is recorded as 0.04; in data set [3] (42 ° C.), 0.05. Also, the Radius was found to be 69.96 ± 19.05 nm in data set [3] (22 ° C.); 70.41 ± 31.77 nm in data set [3] (setting [4]); 66.22 ± 21.15 nm in data set [3] (25 ° C.); 69.96 ± 16.31 nm in data set [3] (28 ° C.); 69.90 ± 15.93 nm in data set [3] (32 ° C.); 64.91 nm in data set [3] (setting [5]). The Radius was determined as 71.96 ± 5.40 nm in data set [3] (39 ° C.) and 71.35 ± 5.01 nm in data set [3] (42 ° C.). For the same compound, the “increase in bilayer thickness after the heating cycle” value in data set [3] (temperature cycle to 42° C. including cooling to room temperature) stood at 21%.
In the case of `CCCCCCCCCCCCCCCCC(=O)NCC(CNC(=O)CCCCCCCCCCCCCCCC)OP(=O)([O-])OCC[N+](C)(C)C` [Rad-PC-Rad, 1,3-diheptadecanamidopropan-2-yl (2-(trimethylammonio)ethyl) phosphate], in data set [1], the “Release at 37° C. after 2 h” value amounted to 6%. In addition, the “Release at RT after 60 s vortex” value in data set [1] is 24% and 23.8%. Besides, the “Release 37° C. after 60 s vortex” value in data set [1] worked out at 34%. The “Release at RT after 7 days” value in data set [1] is 9% and 9.4%. For the same compound, in data set [2] (setting [6]), the “change in enthalpy at main phase transition” value came to 5.774 kcal/mol. In addition, in data set [2] (setting [6]), the “main phase transition temperature” value came to 44.7 °C. The Tm in data set [2] is 45 °C. For the same compound, the most probable bilayer thickness in data set [3] (22 ° C.) was found to be 4.55 nm; in data set [3] (setting [4]), 4.45 nm; in data set [3] (25 ° C.), 4.57 nm; in data set [3] (28 ° C.) it was 4.55 nm; in data set [3] (32 ° C.), 4.51 nm; in data set [3] (35 ° C.) it was 4.45 nm. Moreover, the most probable bilayer thickness came to 4.35 nm in data set [3] (39 ° C.) and 4.4 nm in data set [3] (42 ° C.). The “thermal stability of liposomes” value in data set [3] (temperature range between 22 and 42° C.) is “thermally stable up to 42 °C”.
